Data from publication PMC10141580, “Cyclic Dichalcogenides Extend the Reach of Bioreductive Prodrugs to Harness Thiol/Disulfide Oxidoreductases: Applications to seco-Duocarmycins Targeting the Thioredoxin System” (ACS Central Science, 2023).
Several values for one entry are separate records, joined by “and”; a condition that tells them apart may be missing. Equal entries are not always repeated. Where two headings read alike, the source gives them in different places.

Test system: panel of 140 standard cancer cell lines
Test: ProliFiler-140 cancer cell line screen (CellTiterGlo, 72 h)
Assay type: cell-based
Experimental: Incubations were performed for 72 h before automated viability readout with CellTiterGlo (Figure 8).
End of Figure S11 (part 5 of 5): ProliFiler-140 cancer cell line screening for cytotoxicity of the prodrugs.
8-data-point dose response curves from CellTiter-Glo® viability readout.
ProliFiler-140 cell line panel part V

SMILES: COc1cc2cc(C(=O)N3C[C@@H](CCl)c4c3cc(OC(=O)N3CCN(C(=O)CCC(=O)N5CCN(C)CC5)[C@H]5CSSC[C@H]53)c3ccccc43)[nH]c2c(OC)c1OC [P-SS66C-CBI-TMI]
- Reductive Activation Index (786-O (Kidney)): 4.12
- Reductive Activation Index (A172 (Brain)): 5.35
- Reductive Activation Index (A375 (Skin)): 3.01
- Reductive Activation Index (A427 (Lung)): 19 and 18.60
- Reductive Activation Index (A498 (Kidney)): 3.19
- Reductive Activation Index (A549 (Lung)): 25
- Reductive Activation Index (AsPC-1 (Pancreas)): 8.2
- Reductive Activation Index (BEN (Lung)): 27
- Reductive Activation Index (BT-20 (Breast)): 9.1
- IC50 (COV434, read-out: IC50 [M] (ProliFiler-140), COV434 (Ovary)): 1.5e-08 M
- Reductive Activation Index (Caki-1 (Kidney)): 5.18
- Reductive Activation Index (Caki-2 (Kidney)): 5.62 and 5.6
- Reductive Activation Index (Calu-6 (Lung)): 5.77
- Reductive Activation Index (Colo 205 (Colon)): 8.8
- Reductive Activation Index (DLD-1 (Colon)): 6.33 and 6.3
- Reductive Activation Index (EFM-19 (Breast)): 3.1 and 3.08
- Reductive Activation Index (EFM-192A (Breast)): 6.6
- IC50 (EFM-192A, read-out: IC50 [M] (ProliFiler-140), EFM-192A (Breast)): 2.7e-07 M
- Reductive Activation Index (EFO-27 (Ovary)): 15
- Reductive Activation Index (H4 (Brain)): 5.82
- Reductive Activation Index (H460 (Lung)): 9.3
- Reductive Activation Index (HCC202 (Breast)): 9.8
- IC50 (HCC202, read-out: IC50 [M] (ProliFiler-140), HCC202 (Breast)): 9.1e-08 M
- Reductive Activation Index (HCC827 (Lung)): 15
- Reductive Activation Index (HCC 1569 (Breast)): 28
- Reductive Activation Index (HCT-15 (Colon)): 3.89
- Reductive Activation Index (HEC-1-A (Endometrium)): 18
- Reductive Activation Index (HEC-1-B (Endometrium)): 8.3
- Reductive Activation Index (HT-29 (Colon)): 9.5
- Reductive Activation Index (HeLa (Ovary)): 23.88
- Reductive Activation Index (Hep3B2.1-7 (Liver)): 7.8
- IC50 (Homo sapiens, 786-0, read-out: IC50 [M] (ProliFiler-140), 786-O (Kidney)): 2.86e-08 M
- IC50 (Homo sapiens, A 172, read-out: IC50 [M] (ProliFiler-140), A172 (Brain)): 1.07e-07 M
- IC50 (Homo sapiens, A498, read-out: IC50 [M] (ProliFiler-140), A498 (Kidney)): 9.41e-08 M
- IC50 (Homo sapiens, A549, read-out: IC50 [M] (ProliFiler-140), A549 (Lung)): 3e-08 M
- IC50 (Homo sapiens, A2058, read-out: IC50 [M] (ProliFiler-140), A2058 (Skin)): 1.1e-08 M
- IC50 (Homo sapiens, A2780, read-out: IC50 [M] (ProliFiler-140), A2780 (Ovary)): 8.1e-09 M
- IC50 (Homo sapiens, A-375, read-out: IC50 [M] (ProliFiler-140), A375 (Skin)): 5.45e-08 M
- IC50 (Homo sapiens, A-427, read-out: IC50 [M] (ProliFiler-140), A427 (Lung)): 4.4e-08 M
- IC50 (Homo sapiens, A-431, read-out: IC50 [M] (ProliFiler-140), A431 (Skin)): 2.02e-08 M
- IC50 (Homo sapiens, ASPC1, read-out: IC50 [M] (ProliFiler-140), AsPC-1 (Pancreas)): 2.6e-07 M
- IC50 (Homo sapiens, BT-20, read-out: IC50 [M] (ProliFiler-140), BT-20 (Breast)): 1.2e-07 M
- IC50 (Homo sapiens, BXPC-3, read-out: IC50 [M] (ProliFiler-140), BxPC-3 (Pancreas)): 4.64e-08 M
- IC50 (Homo sapiens, CAKI-1, Caki-1): 6.3e-08 M
- IC50 (Homo sapiens, CAKI-1, read-out: IC50 [M] (ProliFiler-140), Caki-1 (Kidney)): 6.34e-08 M
- IC50 (Homo sapiens, CAKI-2, read-out: IC50 [M] (ProliFiler-140), Caki-2 (Kidney)): 2.69e-07 M
- IC50 (Homo sapiens, COLO 205, Colo 205): 8.6e-08 M
- IC50 (Homo sapiens, COLO 205, read-out: IC50 [M] (ProliFiler-140), Colo 205 (Colon)): 8.6e-08 M
- IC50 (Homo sapiens, COR-L279, read-out: IC50 [M] (ProliFiler-140), COR-L279 (Lung)): 7.2e-09 M
- IC50 (Homo sapiens, Calu-6, read-out: IC50 [M] (ProliFiler-140), Calu-6 (Lung)): 5.93e-08 M
- IC50 (Homo sapiens, DLD-1, read-out: IC50 [M] (ProliFiler-140), DLD-1 (Colon)): 1.25e-07 M
- IC50 (Homo sapiens, DU-145, read-out: IC50 [M] (ProliFiler-140), DU-145 (Prostate)): 1.6e-08 M
- IC50 (Homo sapiens, DV-90, read-out: IC50 [M] (ProliFiler-140), DV90 (Lung)): 1.2e-08 M
- IC50 (Homo sapiens, Detroit 562, read-out: IC50 [M] (ProliFiler-140), Detroit562 (Head/Neck)): 1.88e-08 M
- IC50 (Homo sapiens, EFM-19, read-out: IC50 [M] (ProliFiler-140), EFM-19 (Breast)): 3.1e-07 M
- IC50 (Homo sapiens, EFO-27, read-out: IC50 [M] (ProliFiler-140), EFO-27 (Ovary)): 6.2e-08 M
- IC50 (Homo sapiens, EPLC-272H, read-out: IC50 [M] (ProliFiler-140), EPLC-272H (Lung)): 4.57e-08 M
- IC50 (Homo sapiens, HCC38, read-out: IC50 [M] (ProliFiler-140), HCC38 (Breast)): 1.35e-08 M
- IC50 (Homo sapiens, HCC827, read-out: IC50 [M] (ProliFiler-140), HCC827 (Lung)): 9.1e-08 M
- IC50 (Homo sapiens, HCC1569, read-out: IC50 [M] (ProliFiler-140), HCC 1569 (Breast)): 3.6e-08 M
- IC50 (Homo sapiens, HCT-15, HCT-15): 1.4e-07 M
- IC50 (Homo sapiens, HCT-15, read-out: IC50 [M] (ProliFiler-140), HCT-15 (Colon)): 1.4e-07 M
- IC50 (Homo sapiens, HCT-116, HCT116): 3.2e-08 M
- IC50 (Homo sapiens, HCT-116, read-out: IC50 [M] (ProliFiler-140), HCT116 (Colon)): 3.23e-08 M
- IC50 (Homo sapiens, HEC-1-A, read-out: IC50 [M] (ProliFiler-140), HEC-1-A (Endometrium)): 1e-07 M
- IC50 (Homo sapiens, HEC-1B, read-out: IC50 [M] (ProliFiler-140), HEC-1-B (Endometrium)): 4e-07 M
- IC50 (Homo sapiens, HL-60, HL-60): 1.5e-08 M
- IC50 (Homo sapiens, HL-60, read-out: IC50 [M] (ProliFiler-140), HL-60 (Blood)): 1.5e-08 M
- IC50 (Homo sapiens, HT-29, HT-29): 1.1e-07 M
- IC50 (Homo sapiens, HT-29, read-out: IC50 [M] (ProliFiler-140), HT-29 (Colon)): 1.1e-07 M
- IC50 (Homo sapiens, HT-1080, read-out: IC50 [M] (ProliFiler-140), HT-1080 (Fibrosarcoma)): 2.13e-08 M
- IC50 (Homo sapiens, HeLa, read-out: IC50 [M] (ProliFiler-140), HeLa (Ovary)): 9.89e-09 M
- IC50 (Homo sapiens, Hs746T, read-out: IC50 [M] (ProliFiler-140), Hs 746T (Stomach)): 7.5e-08 M
- IC50 (Homo sapiens, HuTu80, read-out: IC50 [M] (ProliFiler-140), Hutu 80 (Duodenum)): 9.56e-09 M
- IC50 (Homo sapiens, Huh-7, read-out: IC50 [M] (ProliFiler-140), HuH7 (Liver)): 1e-07 M
- IC50 (Homo sapiens, Ishikawa, read-out: IC50 [M] (ProliFiler-140), Ishikawa (Endometrium)): 3.8e-09 M
- IC50 (Homo sapiens, JIMT-1, read-out: IC50 [M] (ProliFiler-140), JIMT-1 (Breast)): 1e-07 M
- IC50 (Homo sapiens, JVM-3, read-out: IC50 [M] (ProliFiler-140), JVM-3 (Blood)): 3.36e-09 M
- IC50 (Homo sapiens, Jurkat, read-out: IC50 [M] (ProliFiler-140), Jurkat (Blood)): 6.17e-09 M
- IC50 (Homo sapiens, K562, read-out: IC50 [M] (ProliFiler-140), K562 (Blood)): 1.3e-07 M
- IC50 (Homo sapiens, KARPAS-299, KARPAS 299 (Blood), read-out: IC50 [M] (ProliFiler-140)): 1.08e-07 M
- IC50 (Homo sapiens, KATO III, read-out: IC50 [M] (ProliFiler-140), Kato III (Stomach)): 2.2e-07 M
